Test results taken from PubChem BioAssay (NCI).
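Interpolation was linear, between the two tested concentrations surrounding the appropriate level; five concentrations were tested over 48 hours in 96-well plates. GI50 is the concentration that inhibits growth by half. TGI marks complete inhibition of growth.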

Columns and labels:
Assay in all cases: NCI-60 cell line screen, 48 h
A498 renal = test system: A498 renal
MDA-MB-231 breast = test system: MDA-MB-231 breast
UACC-62 melanoma = test system: UACC-62 melanoma
IGROV1 ovarian = test system: IGROV1 ovarian
SK-MEL-28 melanoma = test system: SK-MEL-28 melanoma
COLO 205 colon = test system: COLO 205 colon
HOP-62 NSCLC = test system: HOP-62 NSCLC
M14 melanoma = test system: M14 melanoma
SR leukemia = test system: SR leukemia
SK-OV-3 ovarian = test system: SK-OV-3 ovarian
CCRF-CEM leukemia = test system: CCRF-CEM leukemia
SNB-19 CNS = test system: SNB-19 CNS
SNB-75 CNS = test system: SNB-75 CNS
LOX IMVI melanoma = test system: LOX IMVI melanoma
HL-60(TB) leukemia = test system: HL-60(TB) leukemia
PC-3 prostate = test system: PC-3 prostate
RPMI-8226 leukemia = test system: RPMI-8226 leukemia
OVCAR-3 ovarian = test system: OVCAR-3 ovarian
NCI-H23 lung = test system: NCI-H23 lung
SW-620 colon = test system: SW-620 colon
OVCAR-5 ovarian = test system: OVCAR-5 ovarian
ACHN renal = test system: ACHN renal
786-0 renal = test system: 786-0 renal
KM12 colon = test system: KM12 colon
NCI-H460 lung = test system: NCI-H460 lung
A549 NSCLC = test system: A549 NSCLC
SK-MEL-2 melanoma = test system: SK-MEL-2 melanoma
SK-MEL-5 melanoma = test system: SK-MEL-5 melanoma
MDA-MB-468 breast = test system: MDA-MB-468 breast
CAKI-1 renal = test system: CAKI-1 renal
U251 CNS = test system: U251 CNS
MDA-MB-435 = test system: MDA-MB-435
NCI-H522 lung = test system: NCI-H522 lung
BT-549 breast = test system: BT-549 breast
HS 578T breast = test system: HS 578T breast
OVCAR-4 ovarian = test system: OVCAR-4 ovarian
RXF 393 renal = test system: RXF 393 renal
HCT-116 colon = test system: HCT-116 colon
UACC-257 melanoma = test system: UACC-257 melanoma
EKVX NSCLC = test system: EKVX NSCLC
HT29 colon = test system: HT29 colon
SF-268 CNS = test system: SF-268 CNS
SN12C renal = test system: SN12C renal
SF-539 CNS = test system: SF-539 CNS
MOLT-4 leukemia = test system: MOLT-4 leukemia
T-47D breast = test system: T-47D breast
NCI-H226 lung = test system: NCI-H226 lung
HCC-2998 colon = test system: HCC-2998 colon
DU-145 prostate = test system: DU-145 prostate
HCT-15 colon = test system: HCT-15 colon
NCI/ADR-RES ovarian = test system: NCI/ADR-RES ovarian
TK-10 renal = test system: TK-10 renal
K-562 leukemia = test system: K-562 leukemia
HOP-92 NSCLC = test system: HOP-92 NSCLC
OVCAR-8 ovarian = test system: OVCAR-8 ovarian
MCF7 breast = test system: MCF7 breast
MALME-3M melanoma = test system: MALME-3M melanoma
SF-295 CNS = test system: SF-295 CNS
UO-31 renal = test system: UO-31 renal

C=CC(=O)Nc1ccc(C(=O)/C=C/c2ccc(N(C)CCF)cc2)c(O)c1
GI50 (A498 renal): 3.52 µM | TGI (A498 renal): 17.7 µM | GI50 (MDA-MB-231 breast): 2.19 µM | TGI (MDA-MB-231 breast): 5.58 µM | GI50 (UACC-62 melanoma): 1.3 µM | TGI (UACC-62 melanoma): 2.77 µM | GI50 (IGROV1 ovarian): 2 µM | TGI (IGROV1 ovarian): 6 µM | GI50 (SK-MEL-28 melanoma): 1.58 µM | TGI (SK-MEL-28 melanoma): 3.14 µM | GI50 (COLO 205 colon): 1.98 µM | TGI (COLO 205 colon): 4.86 µM | GI50 (HOP-62 NSCLC): 3.26 µM | TGI (HOP-62 NSCLC): 13 µM | GI50 (M14 melanoma): 1.7 µM | TGI (M14 melanoma): 4.19 µM | GI50 (SR leukemia): 0.586 µM | TGI (SR leukemia): 6.2 µM | GI50 (SK-OV-3 ovarian): 6.47 µM | TGI (SK-OV-3 ovarian): 21.4 µM | GI50 (CCRF-CEM leukemia): 2.15 µM | TGI (CCRF-CEM leukemia): 10.5 µM | GI50 (SNB-19 CNS): 3.67 µM | TGI (SNB-19 CNS): 15 µM | GI50 (SNB-75 CNS): 2.1 µM | TGI (SNB-75 CNS): 9.84 µM | GI50 (LOX IMVI melanoma): 1.33 µM | TGI (LOX IMVI melanoma): 2.69 µM | GI50 (HL-60(TB) leukemia): 1.77 µM | TGI (HL-60(TB) leukemia): 5.3 µM | GI50 (PC-3 prostate): 2.22 µM | TGI (PC-3 prostate): 13.6 µM | GI50 (RPMI-8226 leukemia): 1.6 µM | TGI (RPMI-8226 leukemia): 5.92 µM | GI50 (OVCAR-3 ovarian): 1.62 µM | TGI (OVCAR-3 ovarian): 4.53 µM | GI50 (NCI-H23 lung): 1.68 µM | TGI (NCI-H23 lung): 3.99 µM | GI50 (SW-620 colon): 1.52 µM | TGI (SW-620 colon): 3.36 µM | GI50 (OVCAR-5 ovarian): 1.98 µM | TGI (OVCAR-5 ovarian): 4.3 µM | GI50 (ACHN renal): 1.66 µM | TGI (ACHN renal): 3.45 µM | GI50 (786-0 renal): 1.65 µM | TGI (786-0 renal): 3.57 µM | GI50 (KM12 colon): 2.1 µM | TGI (KM12 colon): 5.25 µM | GI50 (NCI-H460 lung): 1.87 µM | TGI (NCI-H460 lung): 5.46 µM | GI50 (A549 NSCLC): 2.62 µM | TGI (A549 NSCLC): 12.7 µM | GI50 (SK-MEL-2 melanoma): 2.53 µM | TGI (SK-MEL-2 melanoma): 7.88 µM | GI50 (SK-MEL-5 melanoma): 2.14 µM | TGI (SK-MEL-5 melanoma): 6.49 µM | GI50 (MDA-MB-468 breast): 1.63 µM | TGI (MDA-MB-468 breast): 4.28 µM | GI50 (CAKI-1 renal): 1.87 µM | TGI (CAKI-1 renal): 4.14 µM | GI50 (U251 CNS): 1.88 µM | TGI (U251 CNS): 5.17 µM | GI50 (MDA-MB-435): 1.72 µM | TGI (MDA-MB-435): 4.6 µM | GI50 (NCI-H522 lung): 1.42 µM | TGI (NCI-H522 lung): 2.95 µM | GI50 (BT-549 breast): 1.55 µM | TGI (BT-549 breast): 3.78 µM | GI50 (HS 578T breast): 2.97 µM | TGI (HS 578T breast): 17.3 µM | GI50 (OVCAR-4 ovarian): 2.95 µM | TGI (OVCAR-4 ovarian): 14 µM | GI50 (RXF 393 renal): 1.52 µM | TGI (RXF 393 renal): 3.09 µM | GI50 (HCT-116 colon): 1.5 µM | TGI (HCT-116 colon): 3 µM | GI50 (UACC-257 melanoma): 2.53 µM | TGI (UACC-257 melanoma): 10.9 µM | GI50 (EKVX NSCLC): 3.37 µM | TGI (EKVX NSCLC): 13.8 µM | GI50 (HT29 colon): 1.57 µM | TGI (HT29 colon): 3.31 µM | GI50 (SF-268 CNS): 2.47 µM | TGI (SF-268 CNS): 8.58 µM | GI50 (SN12C renal): 1.86 µM | TGI (SN12C renal): 5.2 µM | GI50 (SF-539 CNS): 1.67 µM | TGI (SF-539 CNS): 3.5 µM | GI50 (MOLT-4 leukemia): 1.99 µM | TGI (MOLT-4 leukemia): 6.85 µM | GI50 (T-47D breast): 2.47 µM | TGI (T-47D breast): 10 µM | GI50 (NCI-H226 lung): 1.92 µM | TGI (NCI-H226 lung): 5.32 µM | GI50 (HCC-2998 colon): 1.78 µM | TGI (HCC-2998 colon): 3.64 µM | GI50 (DU-145 prostate): 2.52 µM | TGI (DU-145 prostate): 10.3 µM | GI50 (HCT-15 colon): 1.41 µM | TGI (HCT-15 colon): 3.01 µM | GI50 (NCI/ADR-RES ovarian): 1.55 µM | TGI (NCI/ADR-RES ovarian): 4.4 µM | GI50 (TK-10 renal): 3.12 µM | TGI (TK-10 renal): 8.4 µM | GI50 (K-562 leukemia): 2.27 µM | TGI (K-562 leukemia): 24 µM | GI50 (HOP-92 NSCLC): 0.527 µM | TGI (HOP-92 NSCLC): 4 µM | GI50 (OVCAR-8 ovarian): 1.51 µM | TGI (OVCAR-8 ovarian): 3.86 µM | GI50 (MCF7 breast): 1.89 µM | TGI (MCF7 breast): 10.7 µM | GI50 (MALME-3M melanoma): 1.43 µM | TGI (MALME-3M melanoma): 3.46 µM | GI50 (SF-295 CNS): 4.49 µM | TGI (SF-295 CNS): 18.9 µM | GI50 (UO-31 renal): 1.28 µM | TGI (UO-31 renal): 3.74 µM
